The values that follow come from the NIST ThermoML archive (doi:10.1016/j.jct.2007.06.015).

Data set [1] can be described thus: molar enthalpy of vaporization or sublimation. The following applies: 298.15 K, Static calorimetry.
The nature of data set [2]: Molar enthalpy of transition or fusion. The conditions noted are these: Crystal; DSC.
The conditions of data set [3]: Crystal; DTA.

Numbers after ± are expanded uncertainties.

As to `N[C@H]1CC[C@@H](N)CC1` [cis-1,4-cyclohexanediamine], the molar enthalpy in data set [1] (Liquid) came out at 62.2 ± 1.9 kJ/mol.

With `N[C@H]1CC[C@H](N)CC1` [trans-1,4-cyclohexanediamine], the “Molar enthalpy of transition or fusion” value in data set [2] worked out at 27 ± 0.7 kJ/mol. In addition, the molar enthalpy in data set [1] (Crystal) was 105 ± 1.6 kJ/mol. Further, the Normal melting temperature in data set [3] was 69.0 ± 0.5 °C.
